Test results: patent US8232402B2, “Quinolinone farnesyl transferase inhibitors for the treatment of synucleinopathies and other indications” (Link Medicine Corporation, priority 2008, dated 2012)
“Also recorded” adds a separate entry of the source.

Experiments:
[1] = tested on: SH-SY5Y cells overexpressing α-synuclein; assay: α-synuclein toxicity in SH-SY5Y cells infected with α-synuclein-expressing adenovirus (Trypan blue, MTT); assay type: cell-based
Experimental: Viral Infection: Viral infection and MTT assay in SH-SY5Y cells: The viruses were amplified and purified according to the published procedure. SH-SY5Y cells were grown on 100 mm petri-dishes and induced with 100 nM retinoic acid for 3-5 days before the virus infection with M.I.O at 75. Viruses were diluted with DPBS to desired M.I.O. After four hours of incubation, 10 ml growth medium was added. On the second day, cells were splitted into 96-well plates and treated with compounds for next 48 hours. The growth medium in each well was replaced with growth medium with 5 ug/ml MTT. Medium was removed after three hours incubation, and 200 ul isopropyl (0.04N HCl) was added into each well. The signal was read at 570 nm.
Viable cell counting: At stated time points, SH-SY5Y cells were trypsinized with 100 ul trypsin-EDTA for 1 minute and neutralized with 400 ul growth medium. Cell suspension was made up by mixing 0.2 ml of cells in growth medium, 0.3 ml of HBSS and 0.5 ml of 0.4% Trypan Blue solution. Viable cell numbers were counted by standard cell counting chamber.
Since α-synuclein neurotoxicity is dose-dependent, it follows that accumulation of α-synuclein, caused by UCH-L1 farnesylation, should promote its toxicity. […] These cells express high endogenous levels of UCH-L1. […] The unit of y-axis is 10^5/ml. (F) Cell viability was assessed by the amount of metabolic activity using MTT assay. […]

[2] = tested on: primary dopaminergic cultures; assay: α-synuclein toxicity in primary dopaminergic cultures; assay type: cell-based
[3] = tested on: α-synuclein in COS-7 cells; assay: α-synuclein degradation assay in COS-7 cells; assay type: cell-based
Source text: Plasmids: C220S cDNA was generated by PCR site-specific mutagenesis. For the PCR, the 5′ primer is uchforw SEQ ID NO: 1 ([…]), and 3′ primer is uchc220s SEQ ID NO:2 (CTAAGA […]). Wt UCH-L1 served as the template. The PCR fragment was inserted into pcDNA vector. For S 18YC220S mutant, S 18Y UCH-L1 served as the template in PCR. For the FLAG tagged UCH-L1, the 5′ primer is FLAGuchforw SEQ ID NO: 3 ([…] CGATGGAG), and the 3′ primer is uchrev SEQ ID NO: 4 ([…]). Wt UCH-L1 or C220S served as the template. PCR fragment was purified and inserted into pcDNA vector. For the FLAG tagged UCH-L3, the 5′ primer is L3HindIII SEQ ID NO: 5 (CTAAAGCTTATGGACTAC […]), the 3′ primer is L3XhoISAA SEQ ID NO: 6 ([…]). […] After 24 hours of incubation, the cells were lysed with Tris buffer (50 mM Tris, 2% SDS, 0.1% NP-40), and subjected to SDS-PAGE, followed by quantitative Western blotting.
The C220S mutation eliminated the ability of S118 to promote α-synuclein accumulation in COS-7 cells but had no effect on the S18Y polymorph (FIG. 2, panel C): the relative amount of 16 kDa α-synuclein was quantified and normalized against the amount of actin in transfected COS-7 cells with the presence of UCH-L1 variants. […]

[4] = tested on: α-synuclein in SH-SY5Y cells; assay: α-synuclein accumulation in infected SH-SY5Y cells (Western blot); assay type: cell-based; conditions: SH-SY5Y cells infected with α-synuclein adenovirus, normalized to actin
Experimental: Western Blotting: Following transfer of SDS gels onto NC membrane, all membranes were blocked with 5% non-fat milk in TBST (50 mM Tris-HCl pH7.4, 150 mM NaCl, 0.1% Tween 20), and incubated with primary antibody overnight with 1% BSA in TBST, washed three times with TBST, and incubated with horseradish peroxidase-conjugated secondary antibody for 1 hour (Promega). Bound antibodies were detected using enhanced chemiluminascence (NEM).
Since α-synuclein neurotoxicity is dose-dependent, it follows that accumulation of α-synuclein, caused by UCH-L1 farnesylation, should promote its toxicity. […] These cells express high endogenous levels of UCH-L1. […] The unit of y-axis is 10^5/ml. (F) Cell viability was assessed by the amount of metabolic activity using MTT assay. […] The effect of FTI-277 on the α-synuclein accumulation in the SH-SY5Y infected with α-synuclein-expressing adenovirus were analyzed by Western blotting (B) and the amount of α-synuclein (C) was quantified using NIH Image program and normalized against the amount of actin.

UCH-L1 in SH-SY5Y cells = assay: UCH-L1 membrane association and level in SH-SY5Y cells (2D electrophoresis, Western blot); assay type: cell-based
Experimental: Membrane fractionation: Cells were harvested by scraping and washed with PBS. Cell pellet was suspended in lysis buffer (50 mM Tris-HCl, 1 mM EDTA) supplemented with protease inhibitor cocktail (Sigma) and homogenized by passing through 26G needles 10 times. Suspension was clarified by spinning at 600 g for 5 minutes. Clarified suspension was ultracentrifuged at 100,000 g for 2 hours and separated into membrane and cytosol. Membrane fraction was washed with washing buffer (50 mM Tris-HCl, 1 mM EDTA 1 M NaCl), and pelleted each time with bench-top centrifuge.
2D electrophoresis: For the isolation of total cellular protein, cultured SH-SY5Y cells maintained as described above were rinsed with ice-cold PBS. Cells were lysed in 1 ml dSDS buffer (50 mM Tris-HCl, pH 8.0 0.1% SDS) supplemented with protease inhibitor cocktail. Lysates were boiled for 3 min, and were treated with Dnase and Rnase as described. Lysates were precipitated with ice-cold acetone for at least 2 hours, and pellets were resuspended in 2D sample buffer (8M urea, 0.5% CHAPS, 0.2% DTT, 0.5% IPG buffer, 0.002% bromophenol blue). 2D electrophoresis was carried out according to manufacture's protocol (Amersham Life Science). 7 cm pH 4-7 strips were used. For SH-SY5Y membrane fraction, culture SH-SY5Y cells were rinsed with cold PBS and harvested with lysis buffer (50 mM Tris-HCl, pH 8.0, 1 mM ZnAc2, 250 mM sucrose). Lysate was passed through 25G needles for several times and spun at 1000 g for 5 min. Supernatant was centrifuged at 200,000 g for 2 hours. Pellet was extensively washed with lysis buffer and extracted with cold acetone. Pellet was resuspended in 2D sample buffer.
This species was presumably the fully processed species: farnesylated, truncated and C-terminally methylated.

α-synuclein inclusions = assay: Inclusion histology in α-synuclein transgenic mice (α-synuclein and ubiquitin immunostaining, Campbell-Switzer); assay type: in vivo
Experimental: (§1) Farnesyl transferase inhibitors Zarnestra and OSI-754 were administered to mice of the α-synuclein transgenic line described in Masliah et al. (Masliah et al. “Dopaminergic loss and inclusion body formation in alpha-synuclein mice: implications for neurodegenerative disorders” Science 287(5456): 1265-69, 2000; incorporated herein by reference). Animals from this line have α-synuclein neuronal inclusions in the cortex, hippocampus, and the olfactory bulb (Masliah et al. “Dopaminergic loss and inclusion body formation in alpha-synuclein mice: implications for neurodegenerative disorders” Science 287(5456): 1265-69, 2000; incorporated herein by reference). Transgenic mice were orally administered either FTI in 20% cyclodextrin solution or the same volume of vehicle alone twice a day for 30 or 90 days. In some cases, non-transgenic mice also received vehicle twice a day for 30 to 90 days. At the end of treatment, mice were sacrificed, and the brains removed and hemisected. One hemisphere of each was fixed in 4% paraformaldehyde/PBS (pH 7.4), cryoperserved, then sectioned for histology. The other hemisphere was subdivided into four brain regions, including the cortex and hippocampus, that were homogenized and processed into cytoplasmic and membrane fractions.
Formation of α-synuclein inclusions in the cortex and hippocampus was probed by immunostaining with an antibody for human α-synuclein. Cells positive for human α-synuclein were quantified. […] These regions were also analyzed for ubiquitin-immunoreactive inclusions and by the Campbell Switzer method of silver staining. Ubiquitin is known to be a constituent of Lewy bodies and in the α-synculein inclusions found in the transgenic mouse line used in the study (Masliah et al. “Dopaminergic loss and inclusion body formation in alpha-synuclein mice: implications for neurodegenerative disorders” Science 287(5456): 1265-69, 2000; incorporated herein by reference). […] Campbell-Switzer staining is a general marker of Lewy Body type inclusions (Uchihara et al. “Silver stainings distinguish Lewy bodies and glial cytoplasmic inclusions: comparison between Gallyas-Braak and Campbell-Switzer methods” Acta Neuropathol (Berl) 110(3):255-60, 2005; incorporated herein by reference).
Formation of α-synuclein inclusions in the cortex and hippocampus was probed by immunostaining with an antibody for human α-synuclein. Cells positive for human α-synuclein were quantified.

α-synuclein = α-synuclein sandwich ELISA in brain fractions of α-synuclein transgenic mice; assay type: in vivo
Experimental: as §1
Total α-synuclein levels were analyzed by a sandwich ELISA assay similar to one previously described (El-Agnaf et al. “Detection of oligomeric forms of alpha-synuclein protein in human plasma as a potential biomarker for Parkinson's disease” FASEB J. 20(3):419-25, 2006; incorporated herein by reference). In the cortex of vehicle treated animals, α-synuclein protein levels in the α-synuclein transgenic line are greater than in non-transgenic mice in both cytoplasmic (FIG. 10) and membrane fractions (FIG. 11). Transgenic mice that received Zarnestra had lower α-synuclein protein levels than vehicle-treated transgenic mice and nearly the same as that detected in the non-transgenic group in both the cytoplasmic (FIG. 10) and membrane fractions (FIG. 11), which represent soluble and insoluble α-synuclein, respectively. Farnesylated UCH-L1 in the cortex is contained in the membrane fraction. The amount of UCH-L1 was determined by quantitative Western Blot.

farnesylated UCH-L1 = assay: Farnesylated UCH-L1 in cortex membrane fraction of α-synuclein transgenic mice (quantitative Western blot); assay type: in vivo; conditions: 35 mg/kg twice a day, 30 days
Experimental: Farnesyl transferase inhibitors Zarnestra and OSI-754 were administered to mice of the α-synuclein transgenic line described in Masliah et al. (Masliah et al. “Dopaminergic loss and inclusion body formation in alpha-synuclein mice: implications for neurodegenerative disorders” Science 287(5456): 1265-69, 2000; incorporated herein by reference). Animals from this line have α-synuclein neuronal inclusions in the cortex, hippocampus, and the olfactory bulb (Masliah et al. “Dopaminergic loss and inclusion body formation in alpha-synuclein mice: implications for neurodegenerative disorders” Science 287(5456): 1265-69, 2000; incorporated herein by reference). […]
Total α-synuclein levels were analyzed by a sandwich ELISA assay similar to one previously described (El-Agnaf et al. “Detection of oligomeric forms of alpha-synuclein protein in human plasma as a potential biomarker for Parkinson's disease” FASEB J. 20(3):419-25, 2006; incorporated herein by reference). […] Transgenic mice that received Zarnestra had lower α-synuclein protein levels than vehicle-treated transgenic mice and nearly the same as that detected in the non-transgenic group in both the cytoplasmic (FIG. 10) and membrane fractions (FIG. 11), which represent soluble and insoluble α-synuclein, respectively. […] The amount of UCH-L1 was determined by quantitative Western Blot. […]

[5] = α-synuclein transgenic mice, summary, dose not given

COC(=O)[C@H](CCSC)NC(=O)c1ccc(NC[C@@H](N)CS)cc1-c1ccccc1 [FTI-277]
loss of cells (α-synuclein toxicity) [1]: inhibits synuclein toxicity; also recorded: significantly decreased loss of cells | α-synuclein toxicity [2]: inhibit α-synuclein toxicity | α-synuclein levels ([3]; COS-7 cells): lowers α-synuclein levels | amount of α-synuclein [4]: reduced the amount of α-synuclein | total amount of UCH-L1 (UCH-L1 in SH-SY5Y cells): reduced the total amount of UCH-L1 | amount of cytosolic UCH-L1 (UCH-L1 in SH-SY5Y cells; compared to DMSO): without affecting | amount of membrane bound UCH-L1 (UCH-L1 in SH-SY5Y cells; compared to DMSO): significant decrease; also recorded: reducing the amount of membrane-associated protein | rate of turnover of UCH-L1 (UCH-L1 in SH-SY5Y cells; pulse-chase): increased its rate of turnover

Cn1cncc1C(N)(c1ccc(Cl)cc1)c1ccc2c(c1)c(-c1cccc(Cl)c1)cc(=O)n2C (centres unmarked) [Zarnestra]
Campbell-Switzer stained inclusions versus vehicle (α-synuclein inclusions; 35 mg/kg twice a day, 30 days): fewer inclusions | ubiquitin-immunoreactive inclusions versus vehicle (α-synuclein inclusions; 35 mg/kg twice a day, 30 days): fewer ubiquitin-immunoreactive inclusions | inclusions versus vehicle (α-synuclein inclusions; 35 mg/kg twice a day, 30 days, oral): fewer inclusions | α-synuclein-positive cells per mm^2 versus vehicle (α-synuclein inclusions; cortex and hippocampus, 35 mg/kg twice a day, 30 days): significantly fewer | inclusions versus vehicle (α-synuclein inclusions; [5]): fewer inclusions | levels of α-synuclein protein (ELISA) (α-synuclein; cortex, cytoplasmic and membrane fractions, 35 mg/kg twice a day, 30 days): decreased levels of α-synuclein protein | levels of α-synuclein in the cortex (α-synuclein; [5]): decrease levels of α-synuclein in the cortex | amount of farnesylated UCH-L1 (farnesylated UCH-L1): decreased the amount of farnesylated UCH-L1

CC(=O)N[C@@H](CSC(=O)[C@]1([C@@H](O)C(C)C)NC(=O)[C@H](C)[C@@H]1O)C(=O)O [lactacystin]
accumulation of α-synuclein ([3]; transfected COS-7 cells, 35 μM lactacystin, 24 hours): 100%
